Source: ChEMBL document CHEMBL1201862, “PubChem BioAssay data set” (2004)
Calls of active or inactive are those of the source.

Experiments:
[1] = target: Voltage-dependent T-type calcium channel subunit alpha-1H (Homo sapiens, UniProt O95180); type: functional;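 note: channel activity triggered by adding a high calcium stimulation buffer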
[2] = target: T1, Heat shock factor protein 1 (Mus musculus, UniProt P38532); assay: inhibition of MG132-induced HSE-luciferase signal, confirmation, cell-based, NIH3T3, luminescence, dose retest (AID 2382); type: functional;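 note: NIH3T3 fibroblasts with HSF1-driven luciferase reporter stressed by proteasome inhibitor MG132; luminescence from HSF1-driven luciferase expression after 8 hours of MG132 stress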
T1 sequence (P38532 whole entry): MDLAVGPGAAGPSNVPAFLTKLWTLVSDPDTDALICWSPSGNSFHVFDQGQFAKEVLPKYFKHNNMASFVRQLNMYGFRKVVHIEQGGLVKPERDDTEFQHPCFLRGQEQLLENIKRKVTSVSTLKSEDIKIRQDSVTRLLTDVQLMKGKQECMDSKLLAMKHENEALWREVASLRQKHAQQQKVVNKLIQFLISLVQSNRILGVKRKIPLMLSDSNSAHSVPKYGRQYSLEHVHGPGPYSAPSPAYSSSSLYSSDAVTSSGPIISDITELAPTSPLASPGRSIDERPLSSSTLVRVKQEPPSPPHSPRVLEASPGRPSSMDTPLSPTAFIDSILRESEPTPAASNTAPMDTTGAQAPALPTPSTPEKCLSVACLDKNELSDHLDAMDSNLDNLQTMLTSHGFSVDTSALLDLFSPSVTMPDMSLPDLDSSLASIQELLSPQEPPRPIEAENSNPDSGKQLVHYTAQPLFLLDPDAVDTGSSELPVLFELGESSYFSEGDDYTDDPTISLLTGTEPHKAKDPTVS

[3] = Shn3 3'UTR reporter inhibitors, dose response, cell-based, Clone20 osteoblasts, firefly luciferase, cherry-picked (AID 624132); type: functional;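 note: firefly luciferase luminescence from reporter carrying the Shn3 3'UTR in osteoblasts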
[4] = system: INS1; assay: beta cell apoptosis inhibitors, cytokine rescue, dose response, luminescence, retest (AID 449756); type: functional, cell-based; settings: Rattus norvegicus;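 note: cell death triggered by IL-1 beta plus TNF-alpha plus IFN-gamma mixture; protective hits raise ATP signal compared with cytokine alone wells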
[5] = control 3'UTR Renilla luciferase suppression, dose response, counter-screen for Shn3 inhibitor project, cell-based, Clone20-Shn3RL, cherry-picked (AID 624133); type: functional
[6] = target: T2, Polyadenylate-binding protein 1 (Homo sapiens, UniProt P11940); assay: PABP1 MLLE–PAM2 interaction inhibitors, dose response, miRNA deadenylation inhibitor project, biochemical, fluorescence polarization, Cy5-PAM2 peptide, secondary (AID 602260); type: functional; settings: read-out: IC50_Mean
[7] = target: T2, Polyadenylate-binding protein 1; assay: PABP1 MLLE–PAM2 binding inhibitor potency, dose response, biochemical, fluorescence polarization, FITC-PAM2 peptide (AID 602259); type: functional; settings: read-out: IC50_Mean
[8] = target: T3, Carboxy-terminal domain RNA polymerase II polypeptide A small phosphatase 1 (Homo sapiens, UniProt Q9GZU7); assay: inhibitors of CTDSP1, concentration-response testing, biochemical assay, absorbance-based, actives from ultra-high-throughput screening (AID 540297); type: functional
T3 sequence (Q9GZU7 whole entry): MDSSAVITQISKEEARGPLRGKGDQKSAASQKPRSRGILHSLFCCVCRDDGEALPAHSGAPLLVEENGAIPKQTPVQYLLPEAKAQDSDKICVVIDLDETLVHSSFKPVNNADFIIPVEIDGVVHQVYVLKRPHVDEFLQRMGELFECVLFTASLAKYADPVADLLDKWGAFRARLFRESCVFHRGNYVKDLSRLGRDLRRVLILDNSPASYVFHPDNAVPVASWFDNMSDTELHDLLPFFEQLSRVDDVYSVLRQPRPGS

[9] = target: T4, Caspase-6 (Homo sapiens, UniProt P55212); assay: human caspase-6 inhibitors, dose response, biochemical, VEID-R110 fluorescence, cherry-pick (AID 720632)
T4 sequence (P55212 whole entry): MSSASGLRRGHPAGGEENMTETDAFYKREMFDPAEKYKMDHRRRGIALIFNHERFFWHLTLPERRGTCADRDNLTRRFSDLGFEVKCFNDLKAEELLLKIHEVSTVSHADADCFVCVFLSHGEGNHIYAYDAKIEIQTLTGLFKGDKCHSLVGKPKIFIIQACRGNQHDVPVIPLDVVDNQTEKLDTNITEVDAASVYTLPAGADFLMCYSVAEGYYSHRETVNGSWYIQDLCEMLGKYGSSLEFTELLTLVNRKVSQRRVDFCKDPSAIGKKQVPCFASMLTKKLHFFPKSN

[10] = Luminescence Cell-Based Dose Response HTS to Identify Activators of Luciferase Translation or Activity in H4 […] Cells. [Related pubchem assays: 1829 (Project Summary), 1814 (Primary HTS)]; type: functional
[11] = Luminescence Cell-Based Dose Confirmation HTS to Identify Activators of 5'UTR Stem-Loop Driven Alpha-Synuclein mRNA Translation in H4 Neuroglioblastoma Cells. [Related pubchem assays: 1829 (Project Summary), 1814 (Primary HTS)]; type: functional
[12] = system: H4; assay: Luminescence Cell-Based Dose Response HTS to Identify Activators of 5'UTR Stem-Loop Driven Prion Protein mRNA Translation in H4 Neuroglioblastoma Cells. [Related pubchem assays: 1829 (Project Summary), 1814 (Primary HTS)]; type: functional; settings: Homo sapiens
[13] = target: T5, Protein RecA (Mycobacterium tuberculosis, UniProt P9WHJ3); assay: Fluorescence Cell-Free Homogeneous Dose Retest to Identify Inhibitors of RecA-Intein Splicing Activity. [Related pubchem assays (depositor defined):AID2097, AID2223, AID489010, AID492950]; type: functional
T5 sequence (P9WHJ3 whole entry): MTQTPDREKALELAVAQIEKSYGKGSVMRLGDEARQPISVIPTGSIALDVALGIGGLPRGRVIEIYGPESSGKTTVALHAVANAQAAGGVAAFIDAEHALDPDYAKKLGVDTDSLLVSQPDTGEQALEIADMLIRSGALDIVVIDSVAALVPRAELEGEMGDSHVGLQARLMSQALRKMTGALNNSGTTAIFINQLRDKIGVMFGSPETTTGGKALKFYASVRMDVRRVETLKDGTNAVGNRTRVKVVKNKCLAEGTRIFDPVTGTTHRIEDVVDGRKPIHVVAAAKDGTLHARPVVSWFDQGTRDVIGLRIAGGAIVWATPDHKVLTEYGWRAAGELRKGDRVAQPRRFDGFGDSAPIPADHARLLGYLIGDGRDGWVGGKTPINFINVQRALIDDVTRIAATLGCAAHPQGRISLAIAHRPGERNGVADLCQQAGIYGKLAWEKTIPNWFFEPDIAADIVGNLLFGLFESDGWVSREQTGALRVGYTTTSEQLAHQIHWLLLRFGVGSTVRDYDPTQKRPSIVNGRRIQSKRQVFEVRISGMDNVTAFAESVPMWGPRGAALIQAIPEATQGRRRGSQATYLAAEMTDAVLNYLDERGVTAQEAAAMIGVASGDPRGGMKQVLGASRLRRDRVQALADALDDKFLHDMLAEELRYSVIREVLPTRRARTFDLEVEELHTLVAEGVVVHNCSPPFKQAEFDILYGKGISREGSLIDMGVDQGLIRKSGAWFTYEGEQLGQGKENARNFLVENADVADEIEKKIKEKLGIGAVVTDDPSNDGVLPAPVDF

[14] = target: T6, Replicative DNA helicase DnaB (Mycobacterium tuberculosis, UniProt P9WMR3); assay: DnaB intein splicing inhibitors, dose response, biochemical, cell-free fluorescence (AID 449749); type: functional
T6 sequence (P9WMR3 whole entry): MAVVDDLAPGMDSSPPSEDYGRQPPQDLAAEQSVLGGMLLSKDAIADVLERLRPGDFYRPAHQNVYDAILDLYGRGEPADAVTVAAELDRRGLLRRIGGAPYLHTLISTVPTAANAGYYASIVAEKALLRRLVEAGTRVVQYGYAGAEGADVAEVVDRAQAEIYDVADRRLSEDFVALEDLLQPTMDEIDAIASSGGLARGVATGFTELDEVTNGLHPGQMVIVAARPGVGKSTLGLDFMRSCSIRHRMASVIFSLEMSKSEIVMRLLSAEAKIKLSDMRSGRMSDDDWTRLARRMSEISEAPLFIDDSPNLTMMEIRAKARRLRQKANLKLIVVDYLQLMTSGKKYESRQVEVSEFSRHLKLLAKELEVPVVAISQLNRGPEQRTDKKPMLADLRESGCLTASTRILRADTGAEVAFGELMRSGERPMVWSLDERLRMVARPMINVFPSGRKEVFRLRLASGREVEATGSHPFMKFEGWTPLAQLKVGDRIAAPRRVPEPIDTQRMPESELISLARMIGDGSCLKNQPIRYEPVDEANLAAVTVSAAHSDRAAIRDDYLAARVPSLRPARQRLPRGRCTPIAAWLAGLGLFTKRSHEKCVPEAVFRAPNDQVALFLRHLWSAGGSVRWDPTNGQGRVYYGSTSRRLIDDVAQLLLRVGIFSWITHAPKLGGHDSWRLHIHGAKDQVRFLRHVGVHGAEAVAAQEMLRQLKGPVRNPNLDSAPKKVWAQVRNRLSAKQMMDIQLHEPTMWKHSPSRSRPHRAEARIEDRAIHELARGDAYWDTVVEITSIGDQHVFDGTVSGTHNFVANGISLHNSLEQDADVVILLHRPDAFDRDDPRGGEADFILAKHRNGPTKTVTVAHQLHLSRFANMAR

[15] = HepG2 cell cytotoxicity, dose response, cytotoxicity control for Shn3 inhibitor project, CellTiter-Glo, cherry-picked (AID 624134); type: functional, cell-based
[16] = target: Cytochrome P450 3A4 (Homo sapiens, UniProt P08684);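 note: CYP3A4 tested as one member of a cytochrome P450 panel screen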
[17] = target: T7, Microphthalmia-associated transcription factor (Homo sapiens, UniProt O75030); assay: TRPM1 promoter luciferase signal decrease, dose response, MITF inhibitor project, cell-based, SK-MEL-5, cherry-picked, set 3 (AID 493073); type: functional
T7 sequence (O75030 whole entry): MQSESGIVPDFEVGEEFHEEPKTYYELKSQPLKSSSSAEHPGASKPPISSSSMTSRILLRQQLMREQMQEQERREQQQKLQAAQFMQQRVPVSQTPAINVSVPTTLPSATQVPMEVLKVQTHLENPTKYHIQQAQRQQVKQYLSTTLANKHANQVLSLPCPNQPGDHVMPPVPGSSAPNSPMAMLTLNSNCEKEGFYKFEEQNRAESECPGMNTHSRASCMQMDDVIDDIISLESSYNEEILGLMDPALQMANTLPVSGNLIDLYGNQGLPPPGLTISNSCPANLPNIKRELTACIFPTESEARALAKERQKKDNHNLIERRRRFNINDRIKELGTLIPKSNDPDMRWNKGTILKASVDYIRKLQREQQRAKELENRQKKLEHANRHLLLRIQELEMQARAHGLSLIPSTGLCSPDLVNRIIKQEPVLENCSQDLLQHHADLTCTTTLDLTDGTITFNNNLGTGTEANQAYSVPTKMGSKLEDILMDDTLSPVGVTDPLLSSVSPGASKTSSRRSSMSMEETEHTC

[18] = ZM109 Env clade C HIV-1 fusion inhibitors, dose response, HeLa effector, CEM target cells, luciferase, cherry-pick (AID 652058); type: functional, cell-based
[19] = inhibitors of HIV Env-driven cell fusion, dose response, cherry-pick (AID 652057); type: functional, cell-based
[20] = inhibitors of clade B AD8 Env fusion, dose response, cell-based, cherry-pick (AID 652062); type: functional;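 note: luciferase signal from cell-cell fusion driven by HIV-1 clade B AD8 Env; potency is for inhibitors of fusion seen as a drop in luminescence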

Chain of Voltage-dependent T-type calcium channel subunit alpha-1H (O95180 whole entry): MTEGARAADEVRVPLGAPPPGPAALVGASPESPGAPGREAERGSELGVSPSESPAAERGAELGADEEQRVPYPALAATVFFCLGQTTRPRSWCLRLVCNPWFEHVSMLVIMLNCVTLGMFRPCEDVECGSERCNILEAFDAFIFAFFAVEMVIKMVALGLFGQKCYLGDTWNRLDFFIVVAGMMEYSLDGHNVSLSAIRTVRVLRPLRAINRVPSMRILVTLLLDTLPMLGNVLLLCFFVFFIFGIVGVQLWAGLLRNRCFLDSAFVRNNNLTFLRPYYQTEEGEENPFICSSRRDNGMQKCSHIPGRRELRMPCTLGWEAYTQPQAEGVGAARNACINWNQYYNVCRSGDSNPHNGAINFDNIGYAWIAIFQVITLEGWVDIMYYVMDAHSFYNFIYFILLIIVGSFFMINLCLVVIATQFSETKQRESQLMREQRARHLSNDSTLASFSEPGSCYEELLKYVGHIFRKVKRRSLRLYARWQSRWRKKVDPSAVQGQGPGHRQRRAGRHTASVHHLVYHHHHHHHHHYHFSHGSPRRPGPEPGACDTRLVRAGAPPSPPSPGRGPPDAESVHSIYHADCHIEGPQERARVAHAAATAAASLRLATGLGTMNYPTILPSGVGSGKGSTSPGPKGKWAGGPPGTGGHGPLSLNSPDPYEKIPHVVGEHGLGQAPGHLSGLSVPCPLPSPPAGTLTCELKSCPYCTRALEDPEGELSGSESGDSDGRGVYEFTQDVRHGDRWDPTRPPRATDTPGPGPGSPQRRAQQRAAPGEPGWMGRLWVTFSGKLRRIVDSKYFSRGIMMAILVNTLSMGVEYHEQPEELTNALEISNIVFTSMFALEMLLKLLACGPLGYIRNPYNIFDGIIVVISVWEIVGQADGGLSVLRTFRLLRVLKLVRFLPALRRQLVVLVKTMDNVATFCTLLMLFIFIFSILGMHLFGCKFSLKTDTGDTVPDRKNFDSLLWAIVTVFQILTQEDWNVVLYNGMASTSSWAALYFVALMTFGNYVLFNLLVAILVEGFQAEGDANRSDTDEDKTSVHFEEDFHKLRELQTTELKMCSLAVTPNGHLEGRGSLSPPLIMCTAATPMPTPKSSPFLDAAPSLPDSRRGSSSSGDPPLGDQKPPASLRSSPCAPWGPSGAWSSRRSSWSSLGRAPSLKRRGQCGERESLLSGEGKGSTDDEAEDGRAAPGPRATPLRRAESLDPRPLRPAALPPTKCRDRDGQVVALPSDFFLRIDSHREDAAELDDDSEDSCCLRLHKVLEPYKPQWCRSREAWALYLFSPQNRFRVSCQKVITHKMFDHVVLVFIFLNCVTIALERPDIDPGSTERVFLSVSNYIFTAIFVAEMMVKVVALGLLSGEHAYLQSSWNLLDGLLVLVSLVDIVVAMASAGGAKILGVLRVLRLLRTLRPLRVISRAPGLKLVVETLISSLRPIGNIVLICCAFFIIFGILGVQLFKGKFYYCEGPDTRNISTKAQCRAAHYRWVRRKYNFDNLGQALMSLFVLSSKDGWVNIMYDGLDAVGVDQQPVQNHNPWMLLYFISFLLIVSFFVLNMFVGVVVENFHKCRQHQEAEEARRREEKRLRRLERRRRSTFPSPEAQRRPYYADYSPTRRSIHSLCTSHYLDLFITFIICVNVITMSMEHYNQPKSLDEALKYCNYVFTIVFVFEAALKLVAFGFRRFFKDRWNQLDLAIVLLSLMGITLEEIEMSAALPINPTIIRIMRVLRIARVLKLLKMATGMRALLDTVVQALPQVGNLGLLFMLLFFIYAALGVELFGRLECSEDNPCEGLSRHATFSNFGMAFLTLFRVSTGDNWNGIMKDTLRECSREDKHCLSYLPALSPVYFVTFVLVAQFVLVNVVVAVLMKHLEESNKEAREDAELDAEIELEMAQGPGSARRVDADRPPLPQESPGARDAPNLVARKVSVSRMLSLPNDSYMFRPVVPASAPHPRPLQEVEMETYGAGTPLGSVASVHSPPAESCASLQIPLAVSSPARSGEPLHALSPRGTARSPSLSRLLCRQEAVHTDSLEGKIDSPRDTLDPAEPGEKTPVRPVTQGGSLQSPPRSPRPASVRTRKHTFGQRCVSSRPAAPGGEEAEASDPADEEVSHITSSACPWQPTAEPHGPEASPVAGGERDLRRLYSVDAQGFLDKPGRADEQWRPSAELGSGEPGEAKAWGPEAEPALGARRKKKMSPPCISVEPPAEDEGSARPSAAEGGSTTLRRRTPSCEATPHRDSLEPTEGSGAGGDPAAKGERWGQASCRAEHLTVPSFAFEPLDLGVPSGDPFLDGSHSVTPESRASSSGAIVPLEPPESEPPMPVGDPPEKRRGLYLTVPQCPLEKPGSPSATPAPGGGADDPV
T2 sequence (P11940 whole entry): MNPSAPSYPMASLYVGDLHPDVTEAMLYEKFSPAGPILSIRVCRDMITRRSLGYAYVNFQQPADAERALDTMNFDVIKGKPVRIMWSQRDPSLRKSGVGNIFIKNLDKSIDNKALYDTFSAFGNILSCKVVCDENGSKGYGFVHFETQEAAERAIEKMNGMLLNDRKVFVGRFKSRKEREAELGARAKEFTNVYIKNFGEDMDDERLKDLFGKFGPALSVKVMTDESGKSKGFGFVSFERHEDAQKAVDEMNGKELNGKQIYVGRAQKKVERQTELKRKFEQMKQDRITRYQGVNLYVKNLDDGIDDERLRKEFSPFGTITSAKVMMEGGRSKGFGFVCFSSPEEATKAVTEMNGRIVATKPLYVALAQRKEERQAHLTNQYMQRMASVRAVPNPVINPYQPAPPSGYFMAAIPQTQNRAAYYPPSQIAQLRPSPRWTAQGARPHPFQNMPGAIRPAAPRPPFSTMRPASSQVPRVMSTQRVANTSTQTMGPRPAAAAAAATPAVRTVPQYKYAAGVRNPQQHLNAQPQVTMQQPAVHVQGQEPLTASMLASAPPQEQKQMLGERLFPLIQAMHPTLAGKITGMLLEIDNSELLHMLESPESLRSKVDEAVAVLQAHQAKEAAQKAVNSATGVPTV
Chain of Cytochrome P450 3A4 (P08684 whole entry): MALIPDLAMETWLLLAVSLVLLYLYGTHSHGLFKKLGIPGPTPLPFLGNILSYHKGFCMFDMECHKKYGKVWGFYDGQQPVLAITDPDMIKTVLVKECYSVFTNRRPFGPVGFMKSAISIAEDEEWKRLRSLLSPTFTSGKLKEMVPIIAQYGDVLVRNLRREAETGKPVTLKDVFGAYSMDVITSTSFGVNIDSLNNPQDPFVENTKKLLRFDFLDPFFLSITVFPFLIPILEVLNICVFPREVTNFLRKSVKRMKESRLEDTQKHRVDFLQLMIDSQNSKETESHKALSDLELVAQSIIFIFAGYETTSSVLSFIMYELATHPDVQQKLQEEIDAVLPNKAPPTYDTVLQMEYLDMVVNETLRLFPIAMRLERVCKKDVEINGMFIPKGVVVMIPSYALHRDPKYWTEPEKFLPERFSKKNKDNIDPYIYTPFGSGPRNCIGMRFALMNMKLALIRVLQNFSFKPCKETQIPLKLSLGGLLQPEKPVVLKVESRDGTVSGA

O=C(C1CCCN(S(=O)(=O)c2ccc(Cl)cc2)C1)N(Cc1cccs1)C1CC1 (stereo unspecified)
EC50 [1]: 6.78 µM (active)
EC50 [2]: > 195 µM (not active)

CN1/C(=C\C(=O)CN2C(=O)NC3(CCCCCC3)C2=O)C(C)(C)c2ccccc21
AC50 [3]: 2.66 µM (active)
AC50 [4]: 4.56 µM (active)
EC50 [1]: 27.4 µM (active)
AC50 [5]: 12.3 µM (active)

N#CCCN(C(=O)CSc1ccc2c(c1)OCCO2)c1ccccc1
IC50 [6]: > 66 µM (inactive)
IC50 [7]: > 66 µM (inactive)

O=C(O)/C(=C\c1cccc([N+](=O)[O-])c1)c1ccc(S(=O)(=O)N2CCCCC2)s1
IC50 [8]: 9.53 µM (active)
AC50 [9]: 13.9 µM (active)

Cn1c(CSc2nc3ccccc3s2)nc2ccccc21
EC50 [10]: 2.94 µM (active)
EC50 [11]: 43.2 µM (active)
EC50 [12]: 19.9 µM (active)
EC50 [1]: 17.4 µM (active)

CC(=O)c1c(Cl)nc2cccc3c2c1-c1ccccc1C3=O
EC50 [13]: 0.297 µM (inconclusive)
AC50 [14]: > 380 µM (inactive)
IC50 [6]: > 66 µM (inactive)
IC50 [7]: 55.6 µM (inactive)

CCOC(=O)C1CCCN(C(=O)c2ccccc2SCCOC)C1 (stereo unspecified)
IC50 [6]: > 66 µM (inactive)
IC50 [7]: > 66 µM (inactive)

O=S(=O)(Nc1ccccc1Cl)c1cccc2nsnc12
IC50 [8]: 11.2 µM (active)
AC50 [9]: 25.9 µM (active)

CCN(CC)S(=O)(=O)c1ccc(N(C)Cc2ccc(C(F)(F)F)cc2)nc1
AC50 [15]: 41.1 µM (active)
AC50 [3]: 5.85 µM (active)
EC50 [1]: 10.4 µM (active)
AC50 [5]: 25.9 µM (active)

c1ccc2c(c1)nnn2Cc1nnc2sc(-c3ccc4c(c3)OCCO4)nn12
IC50 [6]: > 66 µM (inactive)
IC50 [7]: > 66 µM (inactive)

Cc1nc(N)nc(S)c1CCCNc1ccccc1
AC50 [16]: 6.31 µM (inconclusive)
IC50 [6]: > 66 µM (inactive)
IC50 [7]: > 66 µM (inactive)

NC(=O)c1cc([N+](=O)[O-])ccc1NCc1ccc(N)cc1
AC50 [17]: 1.41 µM (active)

N=c1c(C(=O)NCc2ccco2)cc2c(=O)n3ccccc3nc2n1CC1CCCO1 (stereo unspecified)
IC50 [6]: > 66 µM (inactive)
IC50 [7]: 39.5 µM (inactive)

O=C(NC(Sc1ccc(Cl)cc1)C(=O)O)c1ccccc1 (stereo unspecified)
IC50 [6]: > 66 µM (inactive)
IC50 [7]: > 66 µM (inactive)

C[C@H](CO)N1C[C@H](C)[C@H](CN(C)S(=O)(=O)c2ccc(F)cc2)Oc2cc(Br)ccc2S1(=O)=O
AC50 [18]: 1.13 µM (active)
AC50 [19]: 1.5 µM (active)
AC50 [20]: 4.74 µM (active)

C[C@@H]1CN([C@@H](C)CO)C(=O)c2cccc(NC(=O)C3CCCCC3)c2O[C@H]1CN(C)Cc1ccccc1
AC50 [18]: 10.8 µM (active)
AC50 [19]: 39.6 µM (active)
AC50 [20]: 22.1 µM (active)

CCCC#Cc1ccc2c(c1)O[C@H](CN(C)S(=O)(=O)c1cccc(F)c1)[C@H](C)CN([C@@H](C)CO)S2(=O)=O
AC50 [18]: 15.2 µM (active)
AC50 [19]: 25 µM (active)
AC50 [20]: 25.9 µM (active)

CO[C@H]1CN(C)C(=O)c2ccc(NS(=O)(=O)c3cccc(Cl)c3)cc2OC[C@@H](C)NC[C@H]1C
AC50 [9]: 19.7 µM (active)
